The experiment deals with T1, HCV NS3/4A protease complex, H77 strain (Hepatitis C virus genotype 1a, UniProt P27958, C1454S/C1711G).
T1 construct: DNA encoding the recombinant HCV NS3/4A protease complex (amino acids 1027 to 1711) for these strains; inferred from Ni-NTA purification and the pET21b vector; made in house; host or cells: Escherichia coli BL21 (DE3)
Kind of experiment: FRET peptide assay to monitor HCV NS3/4A proteolytic activity (H77 strain). The class given is biochemical, HCV genotype 1a. The settings on record: read-out: IC50, H177 strain. The source says:
HCV NS3 protease complexes, derived from the BMS strain, H77 strain or J4L6S strain, were generated, as described below. These purified recombinant proteins were generated for use in a homogeneous assay (see below) to provide an indication of how effective compounds of the present disclosure would be in inhibiting HCV NS3 proteolytic activity.
Serum from an HCV-infected patient was obtained from Dr. T. Wright, San Francisco Hospital. An engineered full-length cDNA (compliment deoxyribonucleic acid) template of the HCV genome (BMS strain) was constructed from DNA fragments obtained by reverse transcription-PCR (RT-PCR) of serum RNA (ribonucleic acid) and using primers selected on the basis of homology between other genotype 1a strains. From the determination of the entire genome sequence, a genotype 1a was assigned to the HCV isolate according to the classification of Simmonds et al. (See P Simmonds, K A Rose, S Graham, S W Chan, F McOmish, B C Dow, E A Follett, P L Yap and H Marsden, J. Clin. Microbiol., 31(6), 1493-1503 (1993)). […]

Data on 1 molecule can be found in patent US8163921B2, “Hepatitis C virus inhibitors” (Bristol-Myers Squibb Company, priority 2008, dated 2012).

The IC50 is the concentration that inhibits the measured activity by half.

T1 sequence (P27958 1027-1711 C1454S/C1711G, one chain of several): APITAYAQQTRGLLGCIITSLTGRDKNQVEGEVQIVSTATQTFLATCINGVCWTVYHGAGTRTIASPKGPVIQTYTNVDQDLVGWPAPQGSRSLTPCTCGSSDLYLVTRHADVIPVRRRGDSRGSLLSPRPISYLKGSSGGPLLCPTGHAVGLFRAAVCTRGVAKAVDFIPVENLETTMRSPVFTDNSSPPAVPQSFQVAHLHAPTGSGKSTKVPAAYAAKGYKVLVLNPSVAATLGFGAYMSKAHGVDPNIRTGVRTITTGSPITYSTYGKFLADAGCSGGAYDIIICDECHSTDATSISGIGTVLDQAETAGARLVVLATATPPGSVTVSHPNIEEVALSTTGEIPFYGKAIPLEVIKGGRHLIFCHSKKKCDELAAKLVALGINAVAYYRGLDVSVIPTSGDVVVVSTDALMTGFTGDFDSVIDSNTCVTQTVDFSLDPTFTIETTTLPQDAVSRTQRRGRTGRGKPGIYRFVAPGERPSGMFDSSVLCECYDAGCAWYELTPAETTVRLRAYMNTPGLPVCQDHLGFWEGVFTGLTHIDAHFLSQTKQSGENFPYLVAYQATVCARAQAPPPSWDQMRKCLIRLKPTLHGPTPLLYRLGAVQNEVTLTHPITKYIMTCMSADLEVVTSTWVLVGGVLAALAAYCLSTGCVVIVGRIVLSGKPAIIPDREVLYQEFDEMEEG

`C=C[C@@H]1C[C@]1(NC(=O)[C@@H]1C[C@@H](Oc2ncc(OC)c3ccc(Cl)cc23)CN1C(=O)[C@@H](Nc1nc(-c2cccc(OC(F)(F)F)c2)cs1)C(C)(C)C)C(=O)NS(=O)(=O)C1CC1` [Example 68]: the IC50 turned out to be 1.9 nM.
